Measurements as given in patent US20230143751A1, “Aromatic Compound And Use Thereof In Preparing Antineoplastic Drugs” (Shanghai Zheye Biotechnology Co. Ltd., priority 2020, published 2023).

Columns and labels:
[1] = system: NCI-H358; test: Cell proliferation inhibitory activity on NCI-H358, 3D model test (agarose colony formation); type: cell-based
Summary of the method: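 NCI-H358 cells in soft agarose over a high-concentration agarose base were incubated overnight at 37 °C, then given serially diluted compound in RPMI 1640, with medium changes during CO2 incubation. Colonies were stained with NBT and counted, and IC50 for proliferation inhibition was derived against solvent control.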

[2] = system: NCI-H358 cells; test: Cell proliferation activity of NCI-H358 by CellTiter-Glo reagent; type: cell-based; details: Homo sapiens, NCI-H358; test 8, method of test 3; read-out: IC50 of proliferation inhibitory activity of the compound on NCI-H358 cell line
Summary of the method: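 NCI-H358 cells seeded at 2000–3000 per well and grown overnight at 37° C, 5% CO2 before compound exposure. Viability read by CellTiter-Glo luminescence; IC50 from curve fitting.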

[3] = Preliminary safety test, 5-day escalating oral dosing in Balb/c mice; type: in vivo
Method: Test samples: Compound 3-2, Compound 3-6, Compound 3-12M, Compound 3-20, and Compound 4-8.
Animal species and number: Balb/c; 6 animals per group (half male and half female).
Administration mode: oral administration by gavage.
Animal grouping and administration dose: vehicle blank group, Compound 3-2 group (200 mg/kg, 400 mg/kg, 800 mg/kg), Compound 3-6 group (200 mg/kg, 400 mg/kg, 800 mg/kg), Compound 3-12M group (200 mg/kg, 400 mg/kg, 800 mg/kg), Compound 3-20 group (200 mg/kg, 400 mg/kg, 800 mg/kg), Compound 4-8 group (200 mg/kg, 400 mg/kg, 800 mg/kg).
Administration frequency: once a day for 5 days.
General clinical observations were performed 2 times a day (once in the morning and once in the afternoon) during the test period. Death, morbidity, respiration, secretions, feces, and diet, drinking situation and so on were observed, and the changes in body weight of the mice during the administration period were recorded. The animals in each group were euthanized after the administration, and all animals were dissected and subjected to gross observation.

## C=CC(=O)N1CCN(c2nc(=O)n(-c3c(C)ccnc3C(C)C)c3nc(-c4ccccc4C=C)c(Cl)cc23)[C@@H](C)C1 [Compound 3-2]
[1]; 3D model test
  anti-cell proliferation activity against KRAS G12C mutant type cells NCI-H358 (in words): significant anti-cell proliferation activity
[1]; Homo sapiens, NCI-H358, 3D agarose colony formation, NBT staining
  IC50: < 50 nM
[2]
  IC50: 10 nM
[3]; both sexes, mouse, in vivo, oral gavage, 5 days, initially suggested, read-out: maximum tolerated dose
  MTD at 5 days: > 800 mg/kg
[3]; oral gavage once a day for 5 days, 200 to 800 mg/kg
  water and food intake, activity and body weight during the administration period (in words): no significant abnormality was showed
